According to patent publication US8148392B2, “2-indolyl imidazo [4,5-d] phenanthroline derivatives and their use in the treatment of cancer” (Lorus Therapeutics Inc., priority 2005, dated 2012):
Entries after “also recorded” stand apart in the source; their conditions may differ. Where two headings read alike, the source gives them in different places.

Assays:
Type in all cases: cell-based, human
[1] = test system: PC-3 prostate cancer cells; test: XTT cell proliferation assay, PC-3; conditions: read-out: IC50 (cell growth inhibition)
Protocol: Cell growth inhibition IC50 (μM) by compounds of Formula I was tested on various cancer cell types by XTT cell proliferation assay. The growth inhibitory effects of the compounds of Formula I as shown below for the melanoma cell line SK-MEL-2 were reproducible by Lorus Therapeutics Inc.

[2] = test system: KLF4; test: KLF4 gene expression by RT-PCR, CCRF-CEM; conditions: relative to vehicle control as 1
Source text: (§1) Gene expression levels of KLF4, induced by compounds of Formula I, were also examined on various cancer cell types by RT-PCR. Fold changes in KLF4 in compound-treated cells were expressed relative to KLF4 expression in vehicle control-treated cells of respective cell type as “1”. […] Additionally, xenografts of MDA-MB-435 implanted into mammary fat pads of female SCID mice have shown immunohistochemical staining consistent with melanocytic origin (Ellison G, Klinowska T, Westwood R F, Docter E, French T, Fox J C. (2002) Mol Pathol. 55(5): 294-299). The breast cancer cell line MDA-MB-435 may be expected to function differently than the other breast cancer cell lines.

[3] = test system: KLF4; test: KLF4 gene expression by RT-PCR, HT-29; conditions: for KLF4 expression change with zinc supplement: HT-29, 1 μM compound plus 35 μM ZnCl2, 16 hr; for KLF4 gene expression, change: HT-29, 1 μM, in words; for KLF4 (gene fold increase): HT-29, relative to vehicle control as 1
Protocol: To determine whether compounds of Formula I can chelate zinc in cells, the effect of compound 3 on the expression level of a zinc-regulated gene, metallothionein 1A (MT1A), in human colon carcinoma HT-29 cells, was determined. HT-29 cells, 1×10^6 cells in 10 mL volume of the growth medium were seeded in 100 mm dishes and incubated overnight at 37° C. The medium was removed and replaced with the growth medium containing 35 μM ZnCl2, 1 μM or 4 μM TPEN (NNNN-tetrakis(2-pyridyl-methyl)ethylenediamine), or 1 μM or 4 μM compound 3, or 0.1% DMSO vehicle control. After incubation for 16 hours, the cells were detached by trypsinization, collected by centrifugation and washed once with PBS. Total RNA was extracted by using TRIZOL (Invitrogen, Life Technologies, Carlsbad, Calif.), following manufacturer's instruction, and the level of MT1A mRNA was measured by real time PCR using the comparative CT method as follows. First strand cDNA was synthesized from 200 ng total RNA in Biometra Tpersonal Thermal Cycler (Abgene, UK), using pd(N)6 random hexamer (Amersham Biosciences, Piscataway, N.J.) and SuperScript™ II Reverse Transcriptase kit (Invitrogen) by following manufacturer's protocol. Real-time PCR was performed in ABI Prism 7000 Sequence Detection System (Applied Biosystems Inc., ABI, Foster City, Calif.), using 5 μL of cDNA synthesized by above-mentioned procedure and respective TaqMan® Gene Expression Assays (ABI) by following ABI TaqMan® Universal PCR master mix protocol.
The ability of compounds of Formula I to modulate the mRNA level of a transition metal-regulated tumour suppressor gene was determined in vitro as follows. Compound 3 was tested to determine its ability to increase the expression of zinc-regulated tumour suppressor KLF4 mRNA in colon carcinoma HT-29 cells. […] HT-29 cells were incubated for 16 hours with DMSO as a vehicle control, 35 μM ZnCl2, 1 μM or 4 μM of compound 3, or 1 μM or 4 μM TPEN for 16 hours and mRNA was extracted from the cells as described in Example 19. The expression of KLF4 mRNA was analyzed by real-time polymerase chain reaction using the comparative CT method also as described in Example 19. Compound 3 induced the expression of KLF4 mRNA (approximately 8-fold) in HT-29 cells compared with HT-29 cells treated with vehicle alone (See FIG. 8).
as §1
The change in gene expression of KLF4 upon zinc depletion following compound 3 treatment was determined by RT-PCR as follows. HT-29 cells were treated with 1 μM compound 3 for the indicated time (FIG. 39A) or HT-29 cells were treated with 1 μM compound 3, 35 μM ZnCl2 or compund 3 and ZnCl2 together for 16 hr (FIG. 39B). Total RNA was extracted and gene expression level was determined by RT-PCR.
Fold change in KLF4 gene expression was presented relative to KLF4 expression in non-specific siRNA-transfected cells treated with vehicle control.

[4] = test system: HT-29 cells; test: Cell cycle analysis by flow cytometry, HT-29; conditions: HT-29, 24 hours
Protocol: To test the ability of compounds of Formula I to block cell cycle progression, compound 3 was incubated with human colon carcinoma HT-29 or human leukemia CCRF-CEM cells to determine alterations in populations of cells at different stages of the cell cycle using flow cytometric analysis. HT-29 cells were maintained as described in Example 13. CCRF-CEM cells used in this example and subsequent examples were maintained as suspension cells in a growth medium; RPMI-1640 medium (Sigma, St. Louis, Mo.), supplemented with 2 mM L-glutamine (Gibco, Grand Island, N.Y.), 10% fetal bovine serum (FBS) (Multicell, WISENT Inc. St-Bruno, QC), antibiotic-antimycotic (Multicell), at 37° C. in a 5% CO2-humidified incubator.
The assay was carried out as follows. For HT-29 cells, 1×10^6 cells in 10 mL volume of the growth medium were seeded in 100 mm dishes. For CCRF-CEM cells, 3×10^6 cells in 10 mL volume of the growth medium were seeded in 25 cm^2 flask. […] The fluorescence of stained cells was analyzed using FACScan flow cytometer and the Cell Quest program (BD Biosciences, San Jose, Calif.). Data were evaluated using Modfit software (Verity software House, Topsham, Me.). Values were determined by gate analysis of flow cytometric plots. […]
Cell cycle analysis was assessed by flow cytometry in HT-29 cells treated with compound 3 as shown in FIG. 27A and compound 7 as shown in FIG. 27B.

[5] = test system: KLF4; test: KLF4 gene expression by RT-PCR, MOLT-4; conditions: MOLT-4, relative to vehicle control as 1
Source text: as §1

| Compound | IC50 ([1]; Homo sapiens) | KLF4 (gene fold increase) [2] | KLF4 expression change with zinc supplement [3] | KLF4 gene expression, change [3] | KLF4 (gene fold increase) [3] | cell cycle progression [4] | KLF4 (gene fold increase) [5] | induction of KLF4 mRNA ([3]; HT-29, 16 hours, 1 μM or 4 μM, versus vehicle) | KLF4 gene expression after MTF-1 gene knock-down by siRNA ([3]; HT-29 transfected with MTF-1 siRNA) | IC50 [1] |
| --- | --- | --- | --- | --- | --- | --- | --- | --- | --- | --- |
| Cc1[nH]c2ccc(F)cc2c1-c1nc2c3cccnc3c3ncccc3c2[nH]1 [Compound 7] | 0.21 µM | 48.5 fold | reversed by addition of zinc supplement | increased expression of KLF4 | 8.66 fold | Cell cycle arrest at G1/S phase was observed | 173.6 fold | – | – | – |
| Cc1[nH]c2ccccc2c1-c1nc2c3cccnc3c3ncccc3c2[nH]1 [Compound 3] | 0.3 µM | 28.05 fold | reversed by addition of zinc supplement | Time-dependent increase in KLF4; also recorded: increased expression of KLF4 | 6.5 fold | induced a block in cell cycle progression at the G1 phase; also recorded: Cell cycle arrest at G1/S phase was observed | 44.79 fold | approximately 8 fold | still increased | – |
| CCc1cccc2c(-c3nc4c5cccnc5c5ncccc5c4[nH]3)c(C(C)(C)C)[nH]c12 [Compound 64] | – | 73.77 fold | reversed by addition of zinc supplement | increased expression of KLF4 | 5.96 fold | – | 265.03 fold | – | – | 0.46 µM |
